Experimental data as given in US10227344B2, “CK2 inhibitors, compositions and methods thereof” (Polaris Pharmaceuticals, Inc., priority 2016, dated 2019).

Key:
SkBr-3 = experiment: Cancer cell panel, cell viability (resazurin): Breast, SkBr-3; type: cell-based; details: Homo sapiens, SK-BR-3; SkBr-3 (Breast), 72 hours, single agent; read-out: Example 3 IC50
Experimental: (§1) Cells were plated in 96-well plates and treated for 72 hours with a serially diluted CK2 inhibitor or anti-cancer drug or their combination. The suspension cell lines were treated right after plating, while the adherent cells were allowed to attach overnight prior to the start of the treatment.
(§2) Cell viability was determined by adding resazurin to cell cultures and measuring fluorescence with a plate reader. Relative cell viability was calculated by dividing the cell viability signal from a test sample by that of a non-treated control. […] Bliss Independence and Highest Single Agent models were used to determine if there is synergy, additivity or antagonism between the CK2 inhibitor and an anti-cancer drug.

H1299 = experiment: Cancer cell panel, cell viability (resazurin): NSCLC, H1299; type: cell-based; details: Homo sapiens, NCI-H1299, 72 hours, single agent, read-out: Example 3 IC50
WM-115 = experiment: Cancer cell panel, cell viability (resazurin): Melanoma, WM-115; type: cell-based; details: Homo sapiens; WM-115 (Melanoma), 72 hours, single agent; read-out: Example 3 IC50
ACHN = experiment: Cancer cell panel, cell viability (resazurin): Renal, ACHN; type: cell-based; details: Homo sapiens, 72 hours, single agent, read-out: Example 3 IC50
H2122 = experiment: Cancer cell panel, cell viability (resazurin): NSCLC, H2122; type: cell-based; details: Homo sapiens, NCI-H2122, 72 hours, single agent, read-out: Example 3 IC50
HT29 = experiment: Cancer cell panel, cell viability (resazurin): Colon, HT29; type: cell-based; details: Homo sapiens, HT-29, 72 hours, single agent, read-out: Example 3 IC50
SK-MEL-3 = experiment: Cancer cell panel, cell viability (resazurin): Melanoma, SK-MEL-3; type: cell-based; details: Homo sapiens, SK-MEL3; SK-MEL-3 (Melanoma), 72 hours, single agent; read-out: Example 3 IC50
BT-474 = experiment: Cancer cell panel, cell viability (resazurin): Breast, BT-474; type: cell-based; details: Homo sapiens; BT-474 (Breast), 72 hours, single agent; read-out: Example 3 IC50
Raji = experiment: Cancer cell panel, cell viability (resazurin): Burkitt's Lymphoma, Raji; type: cell-based; details: Homo sapiens, 72 hours, single agent, read-out: Example 3 IC50
Experimental: as §1, §2

NAMALWA = experiment: Cancer cell panel, cell viability (resazurin): Burkitt's Lymphoma, NAMALWA; type: cell-based; details: 72 hours, single agent, read-out: Example 3 IC50
Experimental: as §1, §2

purified CK2α enzyme = purified CK2α enzyme (Homo sapiens, UniProt P68400); experiment: CK2 Protein Kinase Inhibition Assay (coupled PK/LDH assay); type: biochemical; details: CK2 enzyme 25 nM, 100 μM ATP, 37° C., Morrison equation
Summary of the method: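 Purified CK2α at 25 nM final, 1.5 mM peptide substrate, 100 μM ATP, pH 8.25 Tris buffer; compounds pre-incubated 10 min at 37° C. ADP coupled via PK/LDH to NADH loss at 340 nm over 30 min, 37° C. Ki from rate versus concentration by Morrison equation, triplicate points.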

Caov-3 = experiment: Cancer cell panel, cell viability (resazurin): Ovarian, Caov-3; type: cell-based; details: Homo sapiens; Caov-3 (Ovarian), 72 hours, single agent; read-out: Example 3 IC50
DLD-1 = experiment: Cancer cell panel, cell viability (resazurin): Colon, DLD-1; type: cell-based; details: Homo sapiens; DLD-1 (Colon), 72 hours, single agent; read-out: Example 3 IC50
U87MG = experiment: Cancer cell panel, cell viability (resazurin): Glioblastoma, U87MG; type: cell-based; details: Homo sapiens, U-87 MG, 72 hours, single agent, read-out: Example 3 IC50
MeWO = experiment: Cancer cell panel, cell viability (resazurin): Melanoma, MeWO; type: cell-based; details: Homo sapiens, 72 hours, single agent, read-out: Example 3 IC50
Ramos = experiment: Cancer cell panel, cell viability (resazurin): Burkitt's Lymphoma, Ramos; type: cell-based; details: Homo sapiens, 72 hours, single agent, read-out: Example 3 IC50
Experimental: as §1, §2

BT-20 = experiment: Cancer cell panel, cell viability (resazurin): Breast, BT-20; type: cell-based; details: Homo sapiens; BT-20 (Breast), 72 hours, single agent; read-out: Example 3 IC50
LnCap = experiment: Cancer cell panel, cell viability (resazurin): Prostate, LnCap; type: cell-based; details: Homo sapiens, 72 hours, single agent, read-out: Example 3 IC50
Experimental: as §1, §2

MOLT4 = experiment: Cancer cell panel, cell viability (resazurin): Leukemia, MOLT4; type: cell-based; details: Homo sapiens, MOLT-4, 72 hours, single agent, read-out: Example 3 IC50
MCF7 = experiment: Cancer cell panel, cell viability (resazurin): Breast, MCF7; type: cell-based; details: Homo sapiens, 72 hours, single agent, read-out: Example 3 IC50
Experimental: as §1, §2

H460 = experiment: Cancer cell panel, cell viability (resazurin): NSCLC, H460; type: cell-based; details: Homo sapiens, NCI-H460, 72 hours, single agent, read-out: Example 3 IC50
Experimental: as §1, §2

MDA-MB-453 = experiment: Cancer cell panel, cell viability (resazurin): Breast, MDA-MB-453; type: cell-based; details: Homo sapiens; MDA-MB-453 (Breast), 72 hours, single agent; read-out: Example 3 IC50
A2780 = experiment: Cancer cell panel, cell viability (resazurin): Ovarian, A2780; type: cell-based; details: Homo sapiens, 72 hours, single agent, read-out: Example 3 IC50
RPMI8226 = experiment: Cancer cell panel, cell viability (resazurin): multiple myeloma, RPMI8226; type: cell-based; details: Homo sapiens, RPMI-8226, 72 hours, single agent, read-out: Example 3 IC50
Experimental: as §1, §2

H23 = experiment: Cancer cell panel, cell viability (resazurin): NSCLC, H23; type: cell-based; details: Homo sapiens, NCI-H23, 72 hours, single agent, read-out: Example 3 IC50
T47D = experiment: Cancer cell panel, cell viability (resazurin): Breast, T47D; type: cell-based; details: Homo sapiens, 72 hours, single agent, read-out: Example 3 IC50
ZR-75-1 = experiment: Cancer cell panel, cell viability (resazurin): Breast, ZR-75-1; type: cell-based; details: Homo sapiens; ZR-75-1 (Breast), 72 hours, single agent; read-out: Example 3 IC50
Panc-1 = experiment: Cancer cell panel, cell viability (resazurin): Pancreatic, Panc-1; type: cell-based; details: Homo sapiens; Panc-1 (Pancreatic), 72 hours, single agent; read-out: Example 3 IC50
H1975 = experiment: Cancer cell panel, cell viability (resazurin): NSCLC, H1975; type: cell-based; details: Homo sapiens, NCI-H1975, 72 hours, single agent, read-out: Example 3 IC50
BxPC3 = experiment: Cancer cell panel, cell viability (resazurin): Pancreatic, BxPC3; type: cell-based; details: Homo sapiens, BXPC-3, 72 hours, single agent, read-out: Example 3 IC50

Sequence of purified CK2α enzyme (P68400 whole entry): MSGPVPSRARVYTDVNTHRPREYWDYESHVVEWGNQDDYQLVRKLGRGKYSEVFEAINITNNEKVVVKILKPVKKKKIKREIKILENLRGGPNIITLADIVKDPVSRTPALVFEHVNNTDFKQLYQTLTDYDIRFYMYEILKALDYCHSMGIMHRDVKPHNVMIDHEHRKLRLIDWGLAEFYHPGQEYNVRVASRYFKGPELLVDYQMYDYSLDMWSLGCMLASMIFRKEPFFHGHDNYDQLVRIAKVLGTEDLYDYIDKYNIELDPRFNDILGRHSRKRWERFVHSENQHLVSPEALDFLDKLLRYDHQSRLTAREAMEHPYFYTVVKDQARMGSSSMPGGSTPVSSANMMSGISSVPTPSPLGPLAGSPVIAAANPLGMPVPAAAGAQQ

IC50 (SkBr-3): 228 nM
IC50 (H1299): 246 nM
IC50 (WM-115): 286 nM
IC50 (ACHN): 409 nM
IC50 (H2122): 227 nM
IC50 (HT29): 197 nM
IC50 (SK-MEL-3): 429 nM
IC50 (BT-474): 338 nM
IC50 (Raji): 249 nM
IC50 (NAMALWA): 206 nM
Ki (purified CK2α enzyme): < 2.5 nM
IC50 (Caov-3): 50 nM
IC50 (DLD-1): 572 nM
IC50 (U87MG): 1120 nM
IC50 (MeWO): 263 nM
IC50 (Ramos): 312 nM
IC50 (BT-20): 98 nM
IC50 (LnCap): 420 nM
IC50 (MOLT4): 420 nM
IC50 (MCF7): 1820 nM
IC50 (H460): 350 nM
IC50 (MDA-MB-453): 148 nM
IC50 (A2780): 527 nM
IC50 (RPMI8226): 233 nM
IC50 (H23): 575 nM
IC50 (T47D): 861 nM
IC50 (ZR-75-1): 323 nM
IC50 (Panc-1): 539 nM
IC50 (H1975): 387 nM
IC50 (BxPC3): 3600 nM
SMILES: C[S@+]([O-])Cc1cc(Nc2cc(NC3CC3)n3ncc(C#N)c3n2)ccc1Cl [Example 3, (S)(+)-5-((4-Chloro-3-((methylsulfinyl)methyl)phenyl)amino)-7-(cyclopropylamino)pyrazolo[1,5-a]pyrimidine-3-carbonitrile]
